The results in this text go back to US20230066011A1, “PYRROLOPYRIMIDINE DERIVATIVE, AND PHARMACEUTICAL COMPOSITION FOR PREVENTING OR TREATING PROTEIN KINASE-RELATED DISEASE COMPRISING SAME AS ACTIVE INGREDIENT” (VORONOI CO., LTD., priority 2019, published 2023).

The subject of assay [1] is SHP-77. Briefly: Inhibition of proliferation of SHP-77 cancer cells (Cell Titer-Glo). In kind it is cell-based. The following applies: Homo sapiens, SHP77, 72 hours. The procedure, abridged:
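Luminescence from Cell Titer-Glo (10 min, room temperature) gave GI50 after 72 h compound treatment. Final compound levels spanned 0.000169–10.000000 μM over 11 points, 3-fold steps; 2,000 cells/well grown in DMEM or RPMI.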

Assay [2] addresses T1, FAK (Homo sapiens, UniProt Q05397).
T1 construct: purchased DiscoverX Corp. (ScanMAX Kinase analysis panel, service)
In words: ScanMAX Kinase analysis panel, FAK. The following applies: 1 μM in DMSO; <35% considered inhibitory; read-out: percent control (% control), FAK. In kind it is binding. As for the experimental part: Specifically, the enzyme (kinase) selectivity of Example compounds 238, 361, 411, 157, 161, 228, and 158 selected from the Example compounds of the present invention was determined by commissioning DiscoverX Corp., and an experiment was performed using a ScanMAX™ Kinase analysis panel. In this case, a concentration of the drug with which the enzymes were treated was 1 μM in DMSO, and the percent control (% control) was defined in the same manner as in the following Expression 1.
(Example Compound−Positive Control)/(Negative Control−Positive Control)×100 [Expression 1]
wherein the positive control represents a compound having a percent control of 0%, and the negative control represents DMSO having a percent control of 100%. For the enzyme selectivity of the present invention, it was considered that the compound has an inhibitory activity on each of the enzymes when the percent control for the corresponding enzyme was <35% (i. e., less than 35%).

Assay [3] concerns THP-1 cells. Briefly: THP-1 GI50 (Table 4, cytokine secretion experiment). In kind it is cell-based. The following applies: Homo sapiens.
Assay [4] concerns the target T2, CLK1 (Homo sapiens, UniProt P49759).
T2 construct: purchased DiscoverX Corp. (ScanMAX Kinase analysis panel, service)
In words: Kinase HotSpot service (Reaction Biology Corporation), CLK1. In kind it is biochemical. The following applies: ATP 10 uM, read-out: CLK1 IC50 (values indicated by *). The protocol:
(§1) The inhibitory activities of the compounds were measured at a 3-fold concentration gradient starting from a maximum compound concentration of […], and the values measured using the Kinase HotSpot service (Reaction Biology Corporation) are indicated by an asterisk (*).
(§2) All the experimental methods were performed as provided by the Kinase HotSpot Customer Protocol (http://www.reactionbiology.com//Kinase_Assay_Protocol).

Assay [5] has as its target LRRK2 (Homo sapiens, UniProt Q5S007). In words: Kinase HotSpot service (Reaction Biology Corporation), LRRK2. Type of assay: biochemical. More on the design: purchased DiscoverX Corp. (ScanMAX Kinase analysis panel, service). The conditions noted are these: ATP 10 uM, read-out: LRRK2 IC50 (values indicated by *). As for the experimental part: as §1, §2

T1 sequence (Q05397 whole entry): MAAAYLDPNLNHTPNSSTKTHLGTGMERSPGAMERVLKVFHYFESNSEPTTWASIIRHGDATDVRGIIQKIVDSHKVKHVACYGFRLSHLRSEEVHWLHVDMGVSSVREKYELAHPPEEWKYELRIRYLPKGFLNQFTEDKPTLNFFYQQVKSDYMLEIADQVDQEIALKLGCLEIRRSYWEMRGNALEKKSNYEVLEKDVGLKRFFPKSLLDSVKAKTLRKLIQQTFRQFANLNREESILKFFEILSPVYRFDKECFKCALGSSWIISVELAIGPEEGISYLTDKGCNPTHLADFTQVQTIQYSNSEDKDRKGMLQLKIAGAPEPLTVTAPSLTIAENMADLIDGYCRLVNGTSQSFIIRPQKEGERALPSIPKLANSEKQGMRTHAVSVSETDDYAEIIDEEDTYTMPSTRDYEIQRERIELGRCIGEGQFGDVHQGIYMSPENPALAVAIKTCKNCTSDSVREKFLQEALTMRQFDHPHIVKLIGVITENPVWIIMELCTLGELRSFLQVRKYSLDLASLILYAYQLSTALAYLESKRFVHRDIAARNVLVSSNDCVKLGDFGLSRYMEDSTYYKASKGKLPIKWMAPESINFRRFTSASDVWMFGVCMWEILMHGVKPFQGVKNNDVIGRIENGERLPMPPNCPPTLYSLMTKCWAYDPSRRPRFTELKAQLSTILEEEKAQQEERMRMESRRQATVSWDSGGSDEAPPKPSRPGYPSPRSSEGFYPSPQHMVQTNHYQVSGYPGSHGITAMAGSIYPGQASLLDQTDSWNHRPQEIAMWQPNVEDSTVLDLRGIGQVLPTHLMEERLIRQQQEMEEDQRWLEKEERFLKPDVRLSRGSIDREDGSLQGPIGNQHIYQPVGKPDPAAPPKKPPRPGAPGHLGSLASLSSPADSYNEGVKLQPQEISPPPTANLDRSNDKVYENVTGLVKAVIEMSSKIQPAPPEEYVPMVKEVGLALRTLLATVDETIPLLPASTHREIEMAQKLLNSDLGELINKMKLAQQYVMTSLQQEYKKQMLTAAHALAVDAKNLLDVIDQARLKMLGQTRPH
Chain of LRRK2 (Q5S007 whole entry): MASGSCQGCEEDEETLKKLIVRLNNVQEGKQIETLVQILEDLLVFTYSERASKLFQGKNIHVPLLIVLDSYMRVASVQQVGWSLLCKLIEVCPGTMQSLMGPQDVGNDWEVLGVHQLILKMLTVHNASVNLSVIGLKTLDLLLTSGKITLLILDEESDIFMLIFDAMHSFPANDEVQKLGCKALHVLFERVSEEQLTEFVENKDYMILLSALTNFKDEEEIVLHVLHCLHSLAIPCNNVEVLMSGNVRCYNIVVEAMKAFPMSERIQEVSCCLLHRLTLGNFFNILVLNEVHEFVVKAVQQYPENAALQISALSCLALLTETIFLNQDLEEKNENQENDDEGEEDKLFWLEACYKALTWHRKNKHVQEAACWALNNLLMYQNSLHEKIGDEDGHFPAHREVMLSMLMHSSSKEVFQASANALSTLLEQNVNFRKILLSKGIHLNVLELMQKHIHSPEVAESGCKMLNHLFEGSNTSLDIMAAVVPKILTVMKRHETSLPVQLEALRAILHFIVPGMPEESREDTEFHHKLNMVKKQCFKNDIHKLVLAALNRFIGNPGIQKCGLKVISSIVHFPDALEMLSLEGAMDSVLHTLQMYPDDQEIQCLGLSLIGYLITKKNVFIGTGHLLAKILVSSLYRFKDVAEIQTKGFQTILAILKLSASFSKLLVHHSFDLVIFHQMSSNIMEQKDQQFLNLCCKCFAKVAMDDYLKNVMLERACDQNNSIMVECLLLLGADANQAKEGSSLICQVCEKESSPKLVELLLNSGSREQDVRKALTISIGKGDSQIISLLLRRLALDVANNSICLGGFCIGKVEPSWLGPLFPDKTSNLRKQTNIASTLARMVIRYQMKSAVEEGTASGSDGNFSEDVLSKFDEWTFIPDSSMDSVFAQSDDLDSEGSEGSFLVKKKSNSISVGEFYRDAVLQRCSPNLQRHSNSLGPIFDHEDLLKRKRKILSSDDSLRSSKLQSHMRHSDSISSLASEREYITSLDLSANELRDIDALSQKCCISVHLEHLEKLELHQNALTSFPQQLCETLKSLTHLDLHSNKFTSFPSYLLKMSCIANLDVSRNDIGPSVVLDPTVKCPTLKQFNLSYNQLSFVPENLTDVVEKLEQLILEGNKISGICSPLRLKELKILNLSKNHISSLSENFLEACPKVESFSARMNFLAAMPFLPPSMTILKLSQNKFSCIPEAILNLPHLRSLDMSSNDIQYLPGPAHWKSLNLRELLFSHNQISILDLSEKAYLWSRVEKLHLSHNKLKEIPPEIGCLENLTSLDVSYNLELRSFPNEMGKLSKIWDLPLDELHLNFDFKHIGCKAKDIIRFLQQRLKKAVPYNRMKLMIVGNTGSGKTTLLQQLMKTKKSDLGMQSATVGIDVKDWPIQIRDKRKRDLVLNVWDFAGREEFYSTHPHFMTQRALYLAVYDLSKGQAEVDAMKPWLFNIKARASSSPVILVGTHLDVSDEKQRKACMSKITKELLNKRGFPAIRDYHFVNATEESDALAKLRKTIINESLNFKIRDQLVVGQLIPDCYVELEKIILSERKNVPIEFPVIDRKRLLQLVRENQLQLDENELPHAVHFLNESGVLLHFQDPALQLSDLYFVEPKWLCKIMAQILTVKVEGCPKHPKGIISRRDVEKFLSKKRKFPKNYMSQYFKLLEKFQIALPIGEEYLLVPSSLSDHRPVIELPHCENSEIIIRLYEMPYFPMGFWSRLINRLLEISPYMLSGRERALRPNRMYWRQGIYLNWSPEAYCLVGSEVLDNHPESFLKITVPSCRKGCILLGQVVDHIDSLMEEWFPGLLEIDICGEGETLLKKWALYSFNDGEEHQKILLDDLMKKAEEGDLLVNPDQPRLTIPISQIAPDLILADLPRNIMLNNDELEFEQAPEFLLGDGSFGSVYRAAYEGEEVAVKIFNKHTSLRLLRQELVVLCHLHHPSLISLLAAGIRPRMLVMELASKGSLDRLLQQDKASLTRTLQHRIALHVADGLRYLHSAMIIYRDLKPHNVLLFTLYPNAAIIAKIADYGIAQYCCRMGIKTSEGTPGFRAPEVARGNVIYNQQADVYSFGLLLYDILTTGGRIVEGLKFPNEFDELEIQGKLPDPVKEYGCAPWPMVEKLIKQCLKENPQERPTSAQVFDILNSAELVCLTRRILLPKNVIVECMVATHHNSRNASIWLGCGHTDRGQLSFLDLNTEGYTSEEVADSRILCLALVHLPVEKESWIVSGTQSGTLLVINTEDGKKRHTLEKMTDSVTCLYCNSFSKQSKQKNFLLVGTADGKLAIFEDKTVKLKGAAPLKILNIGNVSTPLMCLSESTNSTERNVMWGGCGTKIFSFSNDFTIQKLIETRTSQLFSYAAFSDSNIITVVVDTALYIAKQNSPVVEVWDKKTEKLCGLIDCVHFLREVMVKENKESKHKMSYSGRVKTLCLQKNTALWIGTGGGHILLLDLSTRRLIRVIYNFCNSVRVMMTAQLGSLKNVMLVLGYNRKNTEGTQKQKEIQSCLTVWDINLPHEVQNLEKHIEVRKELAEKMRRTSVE
T2 sequence (P49759 whole entry): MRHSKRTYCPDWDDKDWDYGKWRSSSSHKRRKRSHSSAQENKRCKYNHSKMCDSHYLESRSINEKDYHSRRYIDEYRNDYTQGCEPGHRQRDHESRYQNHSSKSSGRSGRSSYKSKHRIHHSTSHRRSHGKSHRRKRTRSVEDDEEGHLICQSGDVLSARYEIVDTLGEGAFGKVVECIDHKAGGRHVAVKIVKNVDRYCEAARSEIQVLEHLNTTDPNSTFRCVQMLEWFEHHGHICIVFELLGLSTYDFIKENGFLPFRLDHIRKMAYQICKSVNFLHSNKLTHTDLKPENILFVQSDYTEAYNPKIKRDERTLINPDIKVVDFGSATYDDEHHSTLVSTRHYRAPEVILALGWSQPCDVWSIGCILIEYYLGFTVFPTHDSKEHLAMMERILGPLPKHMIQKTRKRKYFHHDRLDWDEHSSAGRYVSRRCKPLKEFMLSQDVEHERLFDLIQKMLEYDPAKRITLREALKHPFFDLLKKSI

As to `CCNc1nc(Nc2ccc(S(=O)(=O)N3CCC(N4CCOCC4)CC3)cc2OC)nc2[nH]cc(C(F)(F)F)c12` [Example 158, N^4-ethyl-N^2-(2-methoxy-4-((4-morpholinopiperidin-1-yl)sulfonyl)phenyl)-5-(trifluoromethyl)-7H-pyrrolo[2,3-d]pyrimidine-2,4-diamine 2,2,2-trifluoroacetate], in assay [1], the GI50 lay within 51 to 100 nM. Besides, the remaining binding at 1 µM in assay [2] is 1.1%.
As for `COCCNc1nc(Nc2ccc(C(=O)N3CCN(C4COC4)CC3)c3c2OCCO3)nc2[nH]cc(C(F)(F)F)c12` [Example 403, (8-((4-((2-methoxyethyl)-amino)-5-(trifluoromethyl)-7H-pyrrolo[2,3-d]pyrimidin-2-yl)amino)-2,3-dihydrobenzo[b] [1,4]dioxin-5-yl) (4-(oxetan-3-yl)piperazin-1-yl)methanone], in assay [3], the GI50 amounted to 40.4 µM.
Consider `O=C(c1ccc(Nc2nc(NC3CCCC3)c3c(C(F)(F)F)c[nH]c3n2)c2c1OCCO2)N1CCN(C2COC2)CC1` [Example 414, (8-((4-(cyclopentyl-amino)-5-(trifluoromethyl)-7H-pyrrolo[2,3-d]pyrimidin-2-yl)amino)-2,3-dihydrobenzo[b] [1,4]dioxin-5-yl) (4-(oxetan-3-yl)piperazin-1-yl)methanone], for which the GI50 in assay [3] came out at 4.16 µM.
Turning to `CNc1nc(Nc2ccc(P3(=O)CCN(C4CC4)CC3)cc2OC)nc2[nH]cc(C(F)(F)F)c12` [Example 411, 1-cyclopropyl-4-(3-methoxy-4-((4-(methylamino)-5-(trifluoromethyl)-7H-pyrrolo[2,3-d]pyrimidin-2-yl)amino)phenyl)-1,4-azaphosphinane-4-oxide], in assay [2], the remaining binding at 1 µM is 10%.
On to `CCCNc1nc(Nc2ccc(S(=O)(=O)N3CCC(N4CCOCC4)CC3)cc2OC)nc2[nH]cc(C(F)(F)F)c12` [Example 161, N^2-(2-methoxy-4-((4-morpholinopiperidin-1-yl)sulfonyl)phenyl)-N^4-propyl-5-(trifluoromethyl)-7H-pyrrolo[2,3-d]pyrimidine-2,4-diamine], for which the IC50 in assay [4] was less than 100 nM. Moreover, the GI50 in assay [1] fell in the range of 301 to 1000 nM. The remaining binding at 1 µM in assay [2] was 2.3%.
Turning to `COCCNc1nc(Nc2ccc(C(=O)N3CCC(N4CCOCC4)CC3)c3c2OCC3)nc2[nH]cc(C#N)c12` [Example 359, 4-((2-methoxy-ethyl)ami-no)-2-((4-(4-morpholino-piperidine-1-carbonyl)-2,3-dihydro-benzofuran-7-yl)amino)-7H-pyrrolo[2,3-d]pyrimidine-5-carbonitrile], growth in assay [3] was halved (GI50) at 13.6 µM.
As to `COc1cc(S(=O)(=O)N2CCC(N3C[C@H]4C[C@@H]3CO4)CC2)ccc1Nc1nc(C2CC2)c2c(C(F)(F)F)c[nH]c2n1` [Example 473, N-(4-((4-((1R,4R)-2-oxa-5-azabicyclo[2.2.1]heptan-5-yl)piperidin-1-yl)sulfonyl)-2-methoxyphenyl)-4-cyclopropyl-5-(trifluoromethyl)-7H-pyrrolo[2,3-d]pyrimidin-2-amine], the IC50 in assay [4] and in assay [5] was less than 100 nM each time.
On to `CNc1nc(Nc2ccc(S(=O)(=O)N3CCC(N4CCOCC4)CC3)cc2OC)nc2[nH]cc(C(F)(F)F)c12` [Example 157, N^2-(2-methoxy-4-((4-morpholinopiperidin-1-yl)sulfonyl)phenyl)-N^4-methyl-5-(trifluoromethyl)-7H-pyrrolo[2,3-d]pyrimidine-2,4-diamine 2,2,2-trifluoroacetate], for which, in assay [1], the GI50 fell in the range of 301 to 1000 nM. In addition, in assay [2], the remaining binding at 1 µM amounted to 0.85%. For the same compound, the IC50 in assay [5] is less than 100 nM.
As for `CNc1nc(Nc2ccc(C(=O)N3CCC(N4CCOCC4)CC3)c3c2OCCO3)nc2[nH]cc(C(F)(F)F)c12` [Example 238, (8-((4-(methylamino)-5-(trifluoromethyl)-7H-pyrrolo[2,3-d]pyrimidin-2-yl)amino)-2,3-dihydrobenzo[b][1,4]dioxin-5-yl)(4-morpholinopiperidin-1-yl)methanone], the remaining binding at 1 µM in assay [2] came out at 7.8%.
Regarding `C=CCNc1nc(Nc2ccc(S(=O)(=O)N3CCC(N4CCOCC4)CC3)cc2OC)nc2[nH]cc(C#N)c12` [Example 361, 4-(allylamino)-2-((2-methoxy-4-((4-morpholino-piperidin-1-yl)sulfonyl)phenyl)amino)-7H-pyrrolo[2,3-d]pyrimidine-5-carbonitrile], the remaining binding at 1 µM in assay [2] stood at 0.75%.
As to `O=C(c1ccc(Nc2nc(C3CC3)c3c(C(F)(F)F)c[nH]c3n2)c2c1OCCO2)N1CCC(N2CCOCC2)CC1` [Example 228, (8-((4-cyclopropyl-5-(trifluoromethyl)-7H-pyrrolo[2,3-d]pyrimidin-2-yl)amino)-2,3-dihydrobenzo[b][1,4]dioxin-5-yl)(4-morpholinopiperidin-1-yl)methanone], the remaining binding at 1 µM in assay [2] was 24%.
